What was measured:
Commelina diffusa [1] = test: Herbicidal activity against Commelina diffusa in Abelmoschus esculentus plots assessed as weed cover at 0.66 kg a.i/ha after 4 weeks (reference value: 22.6 +/- 0.49 %); type: functional
Calopogonium mucunoides [2] = test: Herbicidal activity against Calopogonium mucunoides in Abelmoschus esculentus plots assessed as weed cover at 0.66 kg a.i/ha after 4 weeks (reference value: 22.6 +/- 0.49 %); type: functional
Euphorbia heterophylla [3] = test: Herbicidal activity against Euphorbia heterophylla in Abelmoschus esculentus plots assessed as weed cover at 0.66 kg a.i/ha after 4 weeks (reference value: 22.6 +/- 0.49 %); type: functional
Euphorbia heterophylla [4] = test: Herbicidal activity against Euphorbia heterophylla in Abelmoschus esculentus plots assessed as weed cover at 0.33 kg a.i/ha after 4 weeks (reference value: 22.6 +/- 0.49 %); type: functional
Talinum fruticosum [5] = test: Herbicidal activity against Talinum fruticosum in Abelmoschus esculentus plots assessed as weed cover at 0.99 kg a.i/ha after 2 weeks (reference value: 63.5 +/- 0.29 %); type: functional
Talinum fruticosum [6] = test: Herbicidal activity against Talinum fruticosum in Abelmoschus esculentus plots assessed as minor weed growth at 0.99 kg a.i/ha after 2 weeks; type: functional
Synedrella nodiflora [7] = test: Herbicidal activity against Synedrella nodiflora in Abelmoschus esculentus plots assessed as minor weed growth at 1.32 kg a.i/ha after 2 weeks; type: functional
[8] = system: Rottboellia cochinchinensis; test: Herbicidal activity against Rottboellia cochinchinensis in Abelmoschus esculentus plots assessed as major weed growth at 0.33 kg a.i/ha after 2 weeks; type: functional
Talinum fruticosum [9] = test: Herbicidal activity against Talinum fruticosum in Corchorus olitorius plots assessed as minor weed growth at 0.99 kg a.i/ha after 2 weeks; type: functional
Euphorbia heterophylla [10] = test: Herbicidal activity against Euphorbia heterophylla in Corchorus olitorius plots assessed as major weed growth at 1.32 kg a.i/ha after 2 weeks; type: functional
Synedrella nodiflora [11] = test: Herbicidal activity against Synedrella nodiflora in Corchorus olitorius plots assessed as minor weed growth at 1.32 kg a.i/ha after 2 weeks; type: functional
Euphorbia heterophylla [12] = test: Herbicidal activity against Euphorbia heterophylla in Abelmoschus esculentus plots assessed as weed recovery at 0.33 kg a.i/ha after 2 weeks (reference value: 60.1 +/- 0.46 %); type: functional
Cyperus rotundus = test: Herbicidal activity against Cyperus rotundus in Abelmoschus esculentus plots assessed as weed cover at 0.66 kg a.i/ha after 7 weeks (reference value: 14.7 +/- 0.46 %); type: functional
Calopogonium mucunoides [13] = test: Herbicidal activity against Calopogonium mucunoides in Abelmoschus esculentus plots assessed as weed cover at 0.33 kg a.i/ha after 7 weeks (reference value: 14.7 +/- 0.46 %); type: functional
Chromolaena odorata [14] = test: Herbicidal activity against Chromolaena odorata in Corchorus olitorius plots assessed as weed recovery at 1.32 kg a.i/ha after 2 weeks (reference value: 78.3 +/- 0.74 %); type: functional
Calopogonium mucunoides [15] = test: Herbicidal activity against Calopogonium mucunoides in Corchorus olitorius plots assessed as weed recovery at 0.99 kg a.i/ha after 2 weeks (reference value: 78.3 +/- 0.74 %); type: functional
Mimosa pudica = test: Herbicidal activity against Mimosa pudica in Abelmoschus esculentus plots assessed as weed cover at 0.33 kg a.i/ha after 2 weeks (reference value: 63.5 +/- 0.29 %); type: functional
Synedrella nodiflora [16] = test: Herbicidal activity against Synedrella nodiflora in Abelmoschus esculentus plots assessed as weed cover at 0.33 kg a.i/ha after 2 weeks (reference value: 63.5 +/- 0.29 %); type: functional
Ageratum conyzoides [17] = test: Herbicidal activity against Ageratum conyzoides in Abelmoschus esculentus plots assessed as weed cover at 0.33 kg a.i/ha after 7 weeks (reference value: 14.7 +/- 0.46 %); type: functional
Abelmoschus esculentus [18] = test: Phytotoxicity in Abelmoschus esculentus assessed as root length at 1.32 kg a.i/ha treated to soil after 7 weeks (reference value: 2.9 +/- 0.45 mm); type: organism-based; details: in vivo, other, 1176 h
Corchorus olitorius = test: Phytotoxicity in Corchorus olitorius assessed as root length at 0.66 kg a.i/ha treated to soil after 7 weeks (reference value: 16.9 +/- 0.09 mm); type: organism-based; details: in vivo, other, 1176 h
Calopogonium mucunoides [19] = test: Herbicidal activity against Calopogonium mucunoides in Corchorus olitorius plots assessed as weed recovery at 1.32 kg a.i/ha after 2 weeks (reference value: 78.3 +/- 0.74 %); type: functional
Synedrella nodiflora [20] = test: Herbicidal activity against Synedrella nodiflora in Corchorus olitorius plots assessed as weed recovery at 1.32 kg a.i/ha after 2 weeks (reference value: 78.3 +/- 0.74 %); type: functional
Ageratum conyzoides [21] = test: Herbicidal activity against Ageratum conyzoides in Corchorus olitorius plots assessed as weed cover at 0.33 kg a.i/ha after 7 weeks (reference value: 1.7 +/- 0.56 %); type: functional
Synedrella nodiflora [22] = test: Herbicidal activity against Synedrella nodiflora in Corchorus olitorius plots assessed as weed cover at 0.99 kg a.i/ha after 2 weeks (reference value: 81.7 +/- 0.43 %); type: functional
Commelina diffusa [23] = test: Herbicidal activity against Commelina diffusa in Abelmoschus esculentus plots assessed as minor weed growth at 0.66 kg a.i/ha after 2 weeks; type: functional
Calopogonium mucunoides [24] = test: Herbicidal activity against Calopogonium mucunoides in Abelmoschus esculentus plots assessed as minor weed growth at 0.66 kg a.i/ha after 2 weeks; type: functional
Abelmoschus esculentus [25] = test: Phytotoxicity in Abelmoschus esculentus assessed as crop seedling injury at 0.99 kg a.i/ha after 2 weeks relative to untreated control; type: organism-based; details: in vivo, 336 h
Chromolaena odorata [26] = test: Herbicidal activity against Chromolaena odorata in Corchorus olitorius plots assessed as weed recovery at 0.99 kg a.i/ha after 2 weeks (reference value: 78.3 +/- 0.74 %); type: functional
Synedrella nodiflora [27] = test: Herbicidal activity against Synedrella nodiflora in Corchorus olitorius plots assessed as weed cover at 1.32 kg a.i/ha after 7 weeks (reference value: 1.7 +/- 0.56 %); type: functional
Abelmoschus esculentus [28] = test: Phytotoxicity in Abelmoschus esculentus assessed as shoot length at 0.33 kg a.i/ha applied as solution after 7 weeks (reference value: 28.7 +/- 0.34 mm); type: organism-based; details: in vivo, other, 1176 h
Commelina diffusa [29] = test: Herbicidal activity against Commelina diffusa in Abelmoschus esculentus plots assessed as weed recovery at 0.66 kg a.i/ha after 2 weeks (reference value: 60.1 +/- 0.46 %); type: functional
Synedrella nodiflora [30] = test: Herbicidal activity against Synedrella nodiflora in Corchorus olitorius plots assessed as weed cover at 1.32 kg a.i/ha after 4 weeks (reference value: 20.1+/- 0.57 %); type: functional
Ageratum conyzoides [31] = test: Herbicidal activity against Ageratum conyzoides in Corchorus olitorius plots assessed as weed cover at 1.32 kg a.i/ha after 4 weeks (reference value: 20.1+/- 0.57 %); type: functional
Calopogonium mucunoides [32] = test: Herbicidal activity against Calopogonium mucunoides in Corchorus olitorius plots assessed as weed cover at 0.99 kg a.i/ha after 4 weeks (reference value: 20.1+/- 0.57 %); type: functional
Euphorbia heterophylla [33] = test: Herbicidal activity against Euphorbia heterophylla in Corchorus olitorius plots assessed as weed cover at 0.99 kg a.i/ha after 4 weeks (reference value: 20.1+/- 0.57 %); type: functional
[34] = system: Rottboellia cochinchinensis; test: Herbicidal activity against Rottboellia cochinchinensis in Corchorus olitorius plots assessed as weed cover at 0.33 kg a.i/ha after 4 weeks (reference value: 20.1+/- 0.57 %); type: functional

## CCC(CC)Nc1c([N+](=O)[O-])cc(C)c(C)c1[N+](=O)[O-] [PENDIMETHALIN]
Commelina diffusa [1]
  Activity: 47.9%
Calopogonium mucunoides [2]
  Activity: 47.9%
Euphorbia heterophylla [3]
  Activity: 47.9%
Euphorbia heterophylla [4]
  Activity: 53.8%
Talinum fruticosum [5]
  Activity: 47.9%
Talinum fruticosum [6]
  Activity: 1 /m2
Synedrella nodiflora [7]
  Activity: 1 /m2
[8]
  Activity: 31 /m2
Talinum fruticosum [9]
  Activity: 1 /m2
Euphorbia heterophylla [10]
  Activity: 31 /m2
Synedrella nodiflora [11]
  Activity: 1 /m2
Euphorbia heterophylla [12]
  Activity: 39.2%
Cyperus rotundus
  Activity: 90%
Calopogonium mucunoides [13]
  Activity: 90%
Chromolaena odorata [14]
  Activity: 13.3%
Calopogonium mucunoides [15]
  Activity: 21.7%
Mimosa pudica
  Activity: 56.8%
Synedrella nodiflora [16]
  Activity: 56.8%
Ageratum conyzoides [17]
  Activity: 90%
Abelmoschus esculentus [18]
  Activity: 1.5 mm
Corchorus olitorius
  Activity: 13.7 mm
Calopogonium mucunoides [19]
  Activity: 13.3%
Synedrella nodiflora [20]
  Activity: 13.3%
Ageratum conyzoides [21]
  Activity: 100%
Synedrella nodiflora [22]
  Activity: 51.7%
Commelina diffusa [23]
  Activity: 1 /m2
Calopogonium mucunoides [24]
  Activity: 1 /m2
Abelmoschus esculentus [25]
  Activity: 47.9%
Chromolaena odorata [26]
  Activity: 21.7%
Synedrella nodiflora [27]
  Activity: 95%
Abelmoschus esculentus [28]
  Activity: 14.5 mm
Commelina diffusa [29]
  Activity: 47.9%
Synedrella nodiflora [30]
  Activity: 33.3%
Ageratum conyzoides [31]
  Activity: 33.3%
Calopogonium mucunoides [32]
  Activity: 48.3%
Euphorbia heterophylla [33]
  Activity: 48.3%
[34]
  Activity: 73.3%

Reference: ChEMBL document CHEMBL3044789, “Comparing weed and crop seedling response to pre-emergence pendimethalin application in Corchorus olitorius and Abelmoschus esculentus” (Crop Prot, 2006)
